Reference: patent US8785462B2, “5-hydroxypyrimidine-4-carboxamide derivative” (Daiichi Sankyo Company, Limited, priority 2009, dated 2014)

These compounds were tested on human liver cancer-derived cell line Hep3B (assay: In vitro erythropoietin (EPO) induction activity in Hep3B cells (human EPO ELISA of culture supernatant)). Settings: test compound 12.5 μM, Hep3B cells cultured 24 hours at 37° C., multiple of the EPO concentration in the control (0.5% DMSO = 1).
Format: cell-based
Description: In vitro erythropoietin (EPO) induction activity of test compounds was evaluated using human liver cancer-derived cell line Hep3B (ATCC, Manassas, Va.). Hep3B cells were cultured overnight at 37° C. in Dulbecco's modified Eagle's medium (DMEM) in the presence of 10% fetal bovine serum (FBS) (24-well plate, 1.0×10^5 cells/well). After replacing with fresh DMEM (+10% FBS) containing a test compound dissolved in 0.5% dimethyl sulfoxide (DMSO) (prepared to a concentration of 12.5 μM) or a solvent control (0.5% DMSO), the cells were cultured for 24 hours at 37° C. After recovering the culture supernatant, EPO concentration in the culture supernatant was quantified using a human EPO ELISA kit (StemCell Technologies).
The EPO concentration in the case of using a compound of each example as a test compound was expressed as a multiple of the EPO concentration in the control.
Cc1nc(CC2CCN(c3ccc(-c4ccc(CO)cc4)cc3)CC2)nc(C(=O)NCC(=O)O)c1O [Example 1, ({[5-Hydroxy-2-{(1-[4′-(hydroxymethyl)biphenyl-4-yl]piperidin-4-yl}methyl)-6-methylpyrimidin-4-yl]carbonyl}amino)acetic acid] gave a fold induction at 12.5 µM of 55.
Work on Cc1nc(CC2CCN(c3ccc(-c4ccc(C(C)(C)CO)cc4)cc3)CC2)nc(C(=O)NCC(=O)O)c1O [Example 6, ({[5-Hydroxy-2-{(1-[4′-(2-hydroxy-1,1-dimethylethyl)biphenyl-4-yl]piperidin-4-yl}methyl)-6-methylpyrimidin-4-yl]carbonyl}amino)acetic acid] yielded a fold induction at 12.5 µM of 36.
For CNC(=O)c1ccc(-c2ccc(N3CCC(Cc4nc(C)c(O)c(C(=O)NCC(=O)O)n4)CC3)cc2)cc1 [Example 8, ({[5-Hydroxy-6-methyl-2-{(1-[4′-(methylcarbamoyl)biphenyl-4-yl]piperidin-4-yl}methyl)pyrimidin-4-yl]carbonyl}amino)acetic acid], the fold induction at 12.5 µM was 94.
Cc1cc(-c2ccc(N3CCC(Cc4nc(C)c(O)c(C(=O)NCC(=O)O)n4)CC3)cc2)ccc1CO [Example 40, ({[5-Hydroxy-2-({1-[4′-(hydroxymethyl)-3′-methylbiphenyl-4-yl]piperidin-4-yl}methyl)-6-methylpyrimidin-4-yl]carbonyl}amino)acetic acid] gave a fold induction at 12.5 µM of 25.
CC[C@@H](O)Cc1ccc(-c2ccc(N3CCC(Cc4nc(C)c(O)c(C(=O)NCC(=O)O)n4)CC3)cc2)cc1 [Example 48, [({5-Hydroxy-2-[(1-{4′-[(2R)-2-hydroxybutyl]biphenyl-4-yl}piperidin-4-yl)methyl]-6-methylpyrimidin-4-yl}carbonyl)amino]acetic acid] was tested, and the fold induction at 12.5 µM was 42.
COCc1ccc(-c2ccc(N3CCC(Cc4nc(C)c(O)c(C(=O)NCC(=O)O)n4)CC3)cc2)cc1 [Example 35, ({[5-Hydroxy-2-{(1-[4′-(methoxymethyl)biphenyl-4-yl]piperidin-4-yl}methyl)-6-methylpyrimidin-4-yl]carbonyl}amino)acetic acid] was tested, and the fold induction at 12.5 µM was 53.
For Cc1nc(CC2CCN(c3ccc(-c4ccc(C(=O)N(C)C)cc4)cc3)CC2)nc(C(=O)NCC(=O)O)c1O [Example 7, ({[2-{(1-[4′-(Dimethylcarbamoyl)biphenyl-4-yl]piperidin-4-yl}methyl)-5-hydroxy-6-methylpyrimidin-4-yl]carbonyl}amino)acetic acid], the fold induction at 12.5 µM was 50.
Cc1nc(CC2CCN(c3ccc(-c4ccc(CO)c(F)c4)cc3)CC2)nc(C(=O)NCC(=O)O)c1O [Example 37, ({[2-({1-[3′-Fluoro-4′-(hydroxymethyl)biphenyl-4-yl]piperidin-4-yl}methyl)-5-hydroxy-6-methylpyrimidin-4-yl]carbonyl}amino)acetic acid] gave a fold induction at 12.5 µM of 31.
COC[C@H](O)Cc1ccc(-c2ccc(N3CCC(Cc4nc(C)c(O)c(C(=O)NCC(=O)O)n4)CC3)cc2)cc1 [Example 49, [({5-Hydroxy-2-[(1-{4′-[(2R)-2-hydroxy-3-methoxypropyl]biphenyl-4-yl}piperidin-4-yl)methyl]-6-methylpyrimidin-4-yl}carbonyl)amino]acetic acid] gave a fold induction at 12.5 µM of 18.
Work on CCOC(=O)c1ccc(-c2ccc(N3CCC(Cc4nc(C)c(O)c(C(=O)NCC(=O)O)n4)CC3)cc2)nc1 [Example 16, [({2-[(1-{4-[5-(Ethoxycarbonyl)pyridin-2-yl]phenyl}piperidin-4-yl)methyl]-5-hydroxy-6-methylpyrimidin-4-yl}carbonyl)amino]acetic acid] yielded a fold induction at 12.5 µM of 47.
Compound Cc1nc(CC2CCN(c3ccc(-c4ccc(C(C)O)cc4)cc3)CC2)nc(C(=O)NCC(=O)O)c1O (stereo not drawn) [Example 3, ({[5-Hydroxy-2-{(1-[4′-(1-hydroxyethyl)biphenyl-4-yl]piperidin-4-yl}methyl)-6-methylpyrimidin-4-yl]carbonyl}amino)acetic acid] has a fold induction at 12.5 µM of 24.
Compound [2H]C([2H])(O)c1ccc(-c2ccc(N3CCC(Cc4nc(C)c(O)c(C(=O)NCC(=O)O)n4)CC3)cc2)cc1 [Example 44, ({[5-Hydroxy-2-{(1-[4′-(hydroxymethyl)biphenyl-4-yl]piperidin-4-yl}methyl)-6-methylpyrimidin-4-yl]carbonyl}amino)acetic acid-d2] has a fold induction at 12.5 µM of 26.
Cc1nc(CC2CCN(c3ccc(-c4ccc(CC(C)O)cc4)cn3)CC2)nc(C(=O)NCC(=O)O)c1O (stereo not drawn) [Example 20, [({5-Hydroxy-2-[(1-{5-[4-(2-hydroxypropyl)phenyl]pyridin-2-yl}piperidin-4-yl)methyl]-6-methylpyrimidin-4-yl}carbonyl)amino]acetic acid] showed a fold induction at 12.5 µM of 11.
In the case of CC[C@H](O)Cc1ccc(-c2ccc(N3CCC(Cc4nc(C)c(O)c(C(=O)NCC(=O)O)n4)CC3)cc2)cc1 [Example 47, [({5-Hydroxy-2-[(1-{4′-[(2S)-2-hydroxybutyl]biphenyl-4-yl}piperidin-4-yl)methyl]-6-methylpyrimidin-4-yl}carbonyl)amino]acetic acid], the fold induction at 12.5 µM was 34.
Work on Cc1cc(-c2ccc(N3CCC(Cc4nc(C)c(O)c(C(=O)NCC(=O)O)n4)CC3)cc2C)ccc1CO [Example 26, ({[5-Hydroxy-2-({1-[4′-(hydroxymethyl)-2,3′-dimethylbiphenyl-4-yl]piperidin-4-yl}methyl)-6-methylpyrimidin-4-yl]carbonyl}amino)acetic acid] yielded a fold induction at 12.5 µM of 13.
Work on Cc1nc(CC2CCN(c3ccc(-c4ccc(CO)c(Cl)c4)cc3)CC2)nc(C(=O)NCC(=O)O)c1O [Example 24, ({[2-{(1-[3′-Chloro-4′-(hydroxymethyl)biphenyl-4-yl]piperidin-4-yl}methyl)-5-hydroxy-6-methylpyrimidin-4-yl]carbonyl}amino)acetic acid] yielded a fold induction at 12.5 µM of 30.
Compound Cc1nc(CC2CCN(c3ccc(-c4ccc(C(F)(F)CO)cc4)cc3)CC2)nc(C(=O)NCC(=O)O)c1O [Example 30, ({[2-{(1-[4′-(1,1-Difluoro-2-hydroxyethyl)biphenyl-4-yl]piperidin-4-yl}methyl)-5-hydroxy-6-methylpyrimidin-4-yl]carbonyl}amino)acetic acid] has a fold induction at 12.5 µM of 23.
For Cc1nc(CC2CCN(c3ccc(-c4ccc(C[C@H](C)O)cc4)cc3)CC2)nc(C(=O)NCC(=O)O)c1O [Example 45, [({5-Hydroxy-2-[(1-{4′-[(2S)-2-hydroxypropyl]biphenyl-4-yl}piperidin-4-yl)methyl]-6-methylpyrimidin-4-yl}carbonyl)amino]acetic acid], the fold induction at 12.5 µM was 41.
Cc1nc(CC2CCN(c3ccc(-c4ccc(C[C@@H](C)O)cc4)cc3)CC2)nc(C(=O)NCC(=O)O)c1O [Example 46, [({5-Hydroxy-2-[(1-{4′-[(2R)-2-hydroxypropyl]biphenyl-4-yl}piperidin-4-yl)methyl]-6-methylpyrimidin-4-yl}carbonyl)amino]acetic acid] gave a fold induction at 12.5 µM of 45.
Compound Cc1cc(CO)ccc1-c1ccc(N2CCC(Cc3nc(C)c(O)c(C(=O)NCC(=O)O)n3)CC2)cc1 [Example 25, ({[5-Hydroxy-2-{(1-[4′-(hydroxymethyl)-2′-methylbiphenyl-4-yl]piperidin-4-yl}methyl)-6-methylpyrimidin-4-yl]carbonyl}amino)acetic acid] has a fold induction at 12.5 µM of 22.
Cc1nc(CC2CCN(c3ccc(-c4cc(F)c(CO)c(F)c4)cc3)CC2)nc(C(=O)NCC(=O)O)c1O [Example 41, ({[2-({1-[3′,5′-Difluoro-4′-(hydroxymethyl)biphenyl-4-yl]piperidin-4-yl}methyl)-5-hydroxy-6-methylpyrimidin-4-yl]carbonyl}amino)acetic acid] gave a fold induction at 12.5 µM of 20.
Cc1nc(CC2CCN(c3ccc(-c4ccc(CO)cc4F)cc3)CC2)nc(C(=O)NCC(=O)O)c1O [Example 36, ({[2-{(1-[2′-Fluoro-4′-(hydroxymethyl)biphenyl-4-yl]piperidin-4-yl}methyl)-5-hydroxy-6-methylpyrimidin-4-yl]carbonyl}amino)acetic acid] gave a fold induction at 12.5 µM of 25.
In the case of Cc1nc(CC2CCN(c3ccc(-c4ccc(CC(C)O)cc4)cc3)CC2)nc(C(=O)NCC(=O)O)c1O (stereo not drawn) [Example 5, ({[5-Hydroxy-2-{(1-[4′-(2-hydroxypropyl)biphenyl-4-yl]piperidin-4-yl}methyl)-6-methylpyrimidin-4-yl]carbonyl}amino)acetic acid], the fold induction at 12.5 µM was 48.
Compound COC[C@@H](O)Cc1ccc(-c2ccc(N3CCC(Cc4nc(C)c(O)c(C(=O)NCC(=O)O)n4)CC3)cc2)cc1 [Example 50, [({5-Hydroxy-2-[(1-{4′-[(2S)-2-hydroxy-3-methoxypropyl]biphenyl-4-yl}piperidin-4-yl)methyl]-6-methylpyrimidin-4-yl}carbonyl)amino]acetic acid] has a fold induction at 12.5 µM of 23.
Compound Cc1nc(CC2CCN(c3ccc(-c4cc(Cl)c(CO)c(Cl)c4)cc3)CC2)nc(C(=O)NCC(=O)O)c1O [Example 42, ({[2-{(1-[3′,5′-Dichloro-4′-(hydroxymethyl)biphenyl-4-yl]piperidin-4-yl}methyl)-5-hydroxy-6-methylpyrimidin-4-yl]carbonyl}amino)acetic acid] has a fold induction at 12.5 µM of 28.
In the case of Cc1nc(CC2CCN(c3ccc(-c4ccc(CO)cc4)cc3F)CC2)nc(C(=O)NCC(=O)O)c1O [Example 39, ({[2-{(1-[3-Fluoro-4′-(hydroxymethyl)biphenyl-4-yl]piperidin-4-yl}methyl)-5-hydroxy-6-methylpyrimidin-4-yl]carbonyl}amino)acetic acid], the fold induction at 12.5 µM was 18.
Cc1nc(CC2CCN(c3ccc(-c4ccc(CCO)cc4)cc3)CC2)nc(C(=O)NCC(=O)O)c1O [Example 4, ({[5-Hydroxy-2-({1-[4′-(2-hydroxyethyl)biphenyl-4-yl]piperidin-4-yl}methyl)-6-methylpyrimidin-4-yl]carbonyl}amino)acetic acid] showed a fold induction at 12.5 µM of 73.
